According to the METLIN SMRT retention time set (Domingo-Almenara et al. 2019):

Assay: gradient 5% acetonitrile 3 min, to 50% in 2 min, to 85% in 15 min, held 3 min, 100 µL/min
Conditions: column: Zorbax Extend-C18 2.1 x 50 mm; eluents: water / acetonitrile, 0.1% formic acid
Summary of the method: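 Retention time was recorded from adduct peaks, which were picked computationally and each inspected manually. Pure standards ran in mixtures of ~100 molecules on HPLC coupled to a quadrupole time-of-flight mass spectrometer, in positive and negative ionization mode, through a Zorbax Extend-C18 column (2.1 × 50 mm, 1.8 μm) at 100 μL/min. Eluents were water and acetonitrile, each with 0.1% formic acid.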

SMILES | RP-LC retention time [s]
O=C1CCCCC(Cc2ccccc2)(C(=O)NCc2cccc(C(F)(F)F)c2)N1 (centres undefined) | 893
Cc1ccnc(NS(=O)(=O)c2ccc(NC(=O)c3ccc4ncsc4c3)cc2)n1 | 626
O=C(CCS(=O)(=O)c1ccccc1)NCc1ccsc1 | 671
CC(C)NC(=O)C1CCN(C(=O)c2cc(-c3ccncc3)n[nH]2)CC1 | 556
O=C1NCCCCCN(C(=O)c2cccs2)[C@H]2CCC[C@@H]12 | 698
N#Cc1c(N)nc(SCC(=O)c2ccc(Br)cc2)c(C#N)c1-c1ccccc1 | 997
CC(C(=O)N1CCN(C(=O)c2ccco2)CC1)n1c2ccccc2c2cnn(C)c(=O)c21 (centres undefined) | 746
O=C(NCC(c1cccs1)N1CCc2ccccc21)c1ccco1 (centres undefined) | 894
COc1ccccc1Oc1c(NS(=O)(=O)c2ccc(C)cn2)nc(-c2ccncc2)nc1OC | 870
CCN(CC)C(=O)c1ccc(-c2nc3cc(NS(=O)(=O)c4cc(F)ccc4C)ccc3n2C)cc1 | 723
O=C(COc1ccc(Cl)cc1)N1CCN(c2nc(CN3CCOCC3)cs2)CC1 | 643
O=C(c1ccoc1)N1CCOc2ccc(N3CCOCC3)cc2C1 | 678
CCC(C)NC(=O)Cn1nc2c3sc(N(C)C)nc3ncn2c1=O (centres undefined) | 1130
Cc1nc2cccnc2n1CC1CCCN(S(=O)(=O)c2ccc3c(c2)CCC3)C1 (centres undefined) | 765
CSC[C@H]1O[C@@H](n2cnc3c(N)ncnc32)[C@@H](O)[C@H]1O | 575
O=S(=O)(c1cccnc1)N1CCCn2nc(-c3cccc(F)c3)cc2C1 | 698
O=C(Nc1ccc2c(c1)OCCO2)C1CCCN(S(=O)(=O)c2c[nH]c(C(=O)N3CCCC3)c2)C1 (centres undefined) | 756
CC(=O)c1cccc(C(=O)N2CCC3(CC2)NC(=O)N(Cc2cccc(Cl)c2)C3=O)c1 | 771
Cc1csc(-c2ccc(N3CCN(C(=O)c4cc(F)ccc4F)CC3)nc2)n1 | 996
O=C(CCCn1c(=O)c2cccn2c2ccc(F)cc21)N1CCN(c2ccccn2)CC1 | 635
O=C(C1CCN(c2ncnc3c2oc2ccccc23)CC1)N1CCN(C2CCCCC2)CC1 | 590
Cc1csc(NC(=O)c2ccc(N3CCCC3)nn2)n1 | 626
CS(=O)(=O)N1CCCc2cc(C(=O)NCCCn3ccnc3)ccc21 | 597

SMILES | RP-LC retention time [s]
COCc1cc(=O)n(CC(=O)Nc2cc(Cl)ccc2C)c(N2CCOCC2)n1 | 895
CC(=O)NCCCCCCNC(C)=O | 604
CN(C)c1ccc(CNS(=O)(=O)c2cc(-c3nc(C(C)(C)C)cs3)cs2)cc1 | 1100
COc1ccc(-c2nnc(COc3cccc(NC(=O)C4CCCC4)c3)o2)cc1 | 959
O=C(Cc1ccc(Cl)cc1)NC1CCN(c2ccc(F)cc2)C1=O (centres undefined) | 853
CCNC(=O)N1CCCC(c2cccc(C(=O)NCc3ccc(C)c(C)c3)c2)C1 (centres undefined) | 866
O=C(NCc1cccnc1)c1ccc2c(c1)N(CC(=O)N1CCCC1)C(=O)CO2 | 619
CN(Cc1ccc(F)cc1Cl)C1CCc2nnc(C3CCOCC3)n2CC1 (centres undefined) | 561
O=S(=O)(c1ccccc1)N1CC[C@@H]2COCCN(Cc3ccccc3)[C@@H]2C1 | 675
CCN1CCN(S(=O)(=O)c2cc(-c3nnc(-c4ccc(OC)c(OC)c4)o3)ccc2C)CC1 | 1180
COc1ccc(Cl)cc1NC(=O)N1CCC(OC2CCN(S(C)(=O)=O)CC2)CC1 | 811
Cc1ccc(C2NC(=O)N(CC(=O)Nc3ccc4c(c3)OCO4)C3=C2C(=O)OC3)cc1 (centres undefined) | 746
CCN1CCN(c2nc(F)c(F)c(S(=O)(=O)CCN3C(=O)CCC3=O)c2F)CC1 | 582
O=C(Nc1ccc(N2CCN(C3CCCCC3)C2=O)nc1)c1ccc2c(c1)OCO2 | 808
C=CCn1nnnc1NCc1ccc2c(c1)n(C)c(=O)n2C | 609
COc1ccc(-c2oc3c(CC=C(C)C)c(OC4O[C@H](CO)[C@@H](O)[C@H](O)[C@H]4O)cc(O)c3c(=O)c2OC2O[C@@H](C)[C@H](O)[C@@H](O)[C@H]2O)cc1 (some centres undefined) | 669
O=C(CC1CCOCC1)N1CCN(C(=O)c2ccco2)CC1 | 612
CN1CCC(OC2CCN(C(=O)c3ccc(Cl)s3)CC2)CC1 | 609
O=C1CC(c2nc(-c3ccc4c(c3)OCO4)no2)CN1c1ccc2c(c1)OCCO2 (centres undefined) | 895
O=C(CCC1CCCN(S(=O)(=O)c2ccccc2)C1)NCc1ccc(Cl)cc1 (centres undefined) | 979
CCCN1CCN(c2cc(C(=O)O)c3cc(NC(=O)c4ccc(F)cc4)ccc3n2)CC1 | 888
CCOC(=O)c1c(C)n(C)c2ccc(OCCN(C)C)cc12 | 632
COC(=O)c1ccc(NC(=O)C(=O)NCC2CCN(S(C)(=O)=O)CC2)cc1 | 828

More lines, now with the values ahead:

RP-LC retention time [s] | SMILES
687 | O=C(O)c1cccn2c(=O)c3ccc(F)cc3nc12
767 | CN(C)C(=O)N1CCC(c2nc(CCOc3ccc(F)cc3)no2)C1 (centres undefined)
910 | CCc1ccc(N2C(=O)CN(Cc3ccccc3Cl)[C@H]3CS(=O)(=O)C[C@H]32)cc1
851 | Cc1noc(-c2ccc(=O)n(Cc3ccccc3C)n2)n1
859 | Cc1nn2c(CNS(=O)(=O)c3ccc(F)cc3)c(-c3ccccc3)nc2s1
569 | Cc1cc(N)n(Cc2ccccc2)n1
931 | Cc1nc2ccn(Cc3cccs3)c(=O)c2cc1C(=O)NCCC1=CCCCC1
782 | Cc1cc(C)cc(NC(=O)CN2CCN(Cc3ccccc3)C(=O)C2=O)c1
729 | Cc1nnc2c(NC(=O)c3ccc(Cl)s3)cccn12
917 | CCc1cc(C(=O)Nc2ccc(OC)cc2)nc2ccnn12
935 | CCCn1c(-c2cccc(C(=O)NCCC3=CCCCC3)c2)nc2cccnc21
824 | Cc1cc(N2CCC(NC(=O)Nc3ccccc3)C2=O)ccc1F (centres undefined)
971 | Cc1cc(-c2c(C)sc(C)c2S(=O)(=O)N2CCN(c3ccccc3F)CC2)n[nH]1
776 | COc1ccc(NC(=O)c2c[nH]c3nc(C)ccc3c2=O)cc1
762 | CN(C)CCOc1ccccc1Cc1ccccc1
694 | CSc1cccc(NC(=O)Cn2c(N3CCOCC3)nc(C)cc2=O)c1
702 | CCN1CCN(S(=O)(=O)c2ccc(Cl)c(-c3nnc(-c4ccccc4)o3)c2)CC1
685 | Cc1cc(NC(=O)C2CCCN(c3ccc(-c4ccc(Cl)cc4)nn3)C2)on1 (centres undefined)
1030 | Cc1cc([N+](=O)[O-])ccc1Nc1cccc(Cl)c1C
1060 | Cc1csc(-c2cc(S(=O)(=O)Nc3cccc(Cl)c3)c(C)s2)n1
1130 | O=C(NCc1ccccc1)N1CC(Oc2ccc(-c3nc(-c4ccccc4)no3)cc2)C1
696 | COc1ccc2cccc(CCNC(C)=O)c2c1

RP-LC retention time [s] | SMILES
987 | CCn1cc(-c2nc(C(=O)Nc3ccc(F)c(C)c3)cs2)c2cccnc21
702 | Cc1ccc(CNC(=O)C2(C)Oc3cccnc3NC2=O)cc1 (centres undefined)
816 | CCC(C)NC(=O)c1ccc(-c2cccs2)nc1 (centres undefined)
695 | O=C(CNC(=O)c1c[nH]c2ccccc12)Nc1cc(Cl)ccc1O
1280 | O=c1c2sccc2n(Cc2nc(-c3ccc(Cl)c(F)c3)no2)c(=O)n1CCc1ccccc1
1160 | Cc1ccc(S(=O)(=O)N2CCC(c3noc(-c4cccc(F)c4)n3)CC2)cc1
1020 | Cc1cc2nc(C(=O)Nc3cccc(C)c3C)cc(C)n2n1
700 | CCCCN1CC(c2nc3ccccc3n2CC(=O)N(C)c2ccccc2)CC1=O (centres undefined)
1210 | CCc1ccc(NC(=O)c2cc3sc(Cl)cc3n2C)cc1
664 | CC(C)(CO)NC(=O)Cc1ccc(NS(=O)(=O)c2ccccc2Br)cc1
649 | CC(C)C(=O)Nc1c(C(=O)N2CCN(c3ccccn3)CC2)oc2ccccc12
697 | COc1cccc(-c2nc(CN3CCCC3=O)no2)c1
853 | O=C(CSc1n[nH]c(-c2ccc(F)cc2)n1)Nc1ccc(F)cc1F
876 | Cc1cnn(Cc2nc(-c3ccc(NC(=O)c4cc(C)on4)cc3)oc2C)c1
1300 | Cc1cccc(NC(=O)c2c(O)c3cccnc3n(-c3ccccc3)c2=O)c1C
690 | Cc1noc(C)c1CC(=O)N1CC(c2nc(-c3cccs3)no2)C1
995 | Cc1ccc(-c2noc(-c3cccc(S(=O)(=O)N4CCN(c5ccccn5)CC4)c3)n2)cc1
866 | Cc1ccc(-n2nc(OCC(=O)Nc3cc(F)ccc3F)ccc2=O)cc1C
831 | COc1cccc(NC(=O)N2CC(c3nc(Cc4ccccc4)no3)C2)c1OC
846 | CCOc1ccc(-c2cn3ccn(-c4cccc(F)c4)c(=O)c3n2)cc1
596 | CCOC(=O)c1ccc(NC(=O)CC2COc3ccccc3NC2=O)cc1 (centres undefined)
